From ChEMBL document CHEMBL1144258, “Topochemical model for prediction of anti-HIV activity of HEPT analogs” (Bioorg Med Chem Lett, 2005)

tested on: Human immunodeficiency virus 1; test: Inhibitory activity against human immunodeficiency virus type 1 (inactive>0.1); assay type: functional, organism-based

Question: How did the IC50 turn out when `Cc1c(SC2CCCCC2)n(COCNc2ccccc2)c(=O)[nH]c1=O` was run?
Answer: Inactive

Question: `Cc1c(SC2CCCCC2)n(COCNC(=O)CNCP(=O)(O)O)c(=O)[nH]c1=O` was tested. Which IC50 did it give?
Answer: Inactive

Question: Which IC50 does the source give for `Cc1c(Sc2ccccc2)n(COCc2ccco2)c(=O)[nH]c1=O` here?
Answer: Inactive

Question: Which IC50 does the source give for `Cc1c(SC2CCCCC2)n(COCBr)c(=O)[nH]c1=O` here?
Answer: Inactive

Question: How did the IC50 turn out when `Cc1c(SC2CCCCC2)n(COCN2CCOCC2)c(=O)[nH]c1=O` was run?
Answer: Inactive

Question: With `Cc1c(SC2CCCCC2)n(COCN(CC#N)CC#N)c(=O)[nH]c1=O` as the compound, how does the IC50 read?
Answer: Inactive

Question: Which IC50 does the source give for `Cc1c(Sc2ccccc2)n(COCc2cccs2)c(=O)[nH]c1=O` here?
Answer: Inactive

Question: For `Cc1c(SC2CCCCC2)n(COCI)c(=O)[nH]c1=O`, which IC50 is on record?
Answer: Inactive

Question: With `CCc1c(Sc2ccccc2)n(COCc2ccc([N+](=O)[O-])s2)c(=O)[nH]c1=O` as the compound, how does the IC50 read?
Answer: Inactive

Question: For `Cc1c(SC2CCCCN2)n(COCSc2ccncc2)c(=O)[nH]c1=O` (stereo not drawn), which IC50 is on record?
Answer: Inactive

Question: For `Cc1c(Sc2ccccc2)n(COCc2ccc([N+](=O)[O-])s2)c(=O)[nH]c1=O`, which IC50 is on record?
Answer: Inactive

Question: With `Cc1c(SC2CCCCC2)n(COCNC(=O)c2ccccc2)c(=O)[nH]c1=O` as the compound, how does the IC50 read?
Answer: Inactive

Question: Which IC50 does the source give for `Cc1c(SC2CCCCN2)n(COCNc2ccccc2)c(=O)[nH]c1=O` (stereo not drawn) here?
Answer: Inactive

Question: With `Cc1c(SC2CCCCC2)n(COCN(c2ccccc2)c2ccccc2)c(=O)[nH]c1=O` as the compound, how does the IC50 read?
Answer: Inactive

Question: For `Cc1c(SC2CCCCC2)n(COCSc2ccccc2)c(=O)[nH]c1=O`, which IC50 is on record?
Answer: Inactive

Question: For `Cc1c(SC2CCCCC2)n(COCN)c(=O)[nH]c1=O`, which IC50 is on record?
Answer: Inactive

Question: With `Cc1c(SC2CCCCC2)n(COCN2CCNCC2)c(=O)[nH]c1=O` as the compound, how does the IC50 read?
Answer: Inactive

Question: How did the IC50 turn out when `Cc1c(SC2CCCCC2)n(COCSc2ccncc2)c(=O)[nH]c1=O` was run?
Answer: Inactive

Question: With `Cc1c(SC2CCCCC2)n(COCN(C(=O)c2ccccc2)C(=O)c2ccccc2)c(=O)[nH]c1=O` as the compound, how does the IC50 read?
Answer: Inactive

Question: `Cc1c(SC2CCCCC2)n(COCNC(=O)CCCl)c(=O)[nH]c1=O` was tested. Which IC50 did it give?
Answer: Inactive

Question: With `Cc1c(Sc2ccccc2)n(COCC2CCCCC2)c(=O)[nH]c1=O` as the compound, how does the IC50 read?
Answer: Inactive

Question: `Cc1c(Sc2ccccc2)n(COCc2cccnc2)c(=O)[nH]c1=O` was tested. Which IC50 did it give?
Answer: Inactive

Question: For `Cc1c(SC2CCCCC2)n(COCNC(=O)CP(=O)(O)O)c(=O)[nH]c1=O`, which IC50 is on record?
Answer: Inactive

Question: For `Cc1c(SC2CCCCN2)n(COCSc2ccccc2)c(=O)[nH]c1=O` (stereo not drawn), which IC50 is on record?
Answer: Inactive

Question: For `Cc1c(Sc2ccccc2)n(COCc2ccccc2)c(=O)[nH]c1=O`, which IC50 is on record?
Answer: Inactive

Question: With `Cc1c(Sc2ccccc2)n(COCc2cc3ccccc3o2)c(=O)[nH]c1=O` as the compound, how does the IC50 read?
Answer: Inactive

tested on: Human immunodeficiency virus 1; test: Inhibitory activity against human immunodeficiency virus type 1; assay type: functional, organism-based

Question: Which IC50 does the source give for `CCc1c(Sc2ccccc2)n(COCc2ccccc2)c(=O)[nH]c1=O` here?
Answer: < 100 nM

Question: How did the IC50 turn out when `CCc1c(Sc2cc(C)cc(C)c2)n(COCc2ccccc2)c(=O)[nH]c1=O` was run?
Answer: < 100 nM

Question: With `CCc1c(Sc2cc(C)cc(C)c2)n(COCc2ccco2)c(=O)[nH]c1=O` as the compound, how does the IC50 read?
Answer: < 100 nM

Question: `CCc1c(Sc2ccccc2)n(COCc2ccco2)c(=O)[nH]c1=O` was tested. Which IC50 did it give?
Answer: < 100 nM

Question: With `CCc1c(Sc2ccccc2)n(COCc2cc3ccccc3o2)c(=O)[nH]c1=O` as the compound, how does the IC50 read?
Answer: < 100 nM

Question: For `CCc1c(Sc2cc(C)cc(C)c2)n(COCc2cccs2)c(=O)[nH]c1=O`, which IC50 is on record?
Answer: < 100 nM

Question: `CCc1c(Sc2ccccc2)n(COCc2cccs2)c(=O)[nH]c1=O` was tested. Which IC50 did it give?
Answer: < 100 nM
